Tests used:
[1] = target: T1, Human PDGFRα, cytoplasmic domain (GST-PDGFRα) (Homo sapiens, UniProt P16234); experiment: Human PDGFRα biochemical inhibition assay (off-chip Mobility Shift Assay)
T1 construct: made in house

[2] = target: T2, Human PDGFRβ, cytoplasmic domain (GST-PDGFRβ) (Homo sapiens, UniProt P09619); experiment: Human PDGFRβ biochemical inhibition assay (off-chip Mobility Shift Assay)
T2 construct: made in house
Procedure, shortened: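 GST-tagged cytoplasmic domain (aa 557-1106) from baculovirus was incubated 1 h at room temperature with compound, CSKtide, ATP at Km and Mg²⁺ in HEPES buffer, pH 7.5. Phosphorylated and unphosphorylated peptide were separated by off-chip mobility shift, and the product ratio P/(P+S) gave percent inhibition.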

T2 sequence (P09619 with tags, fused parts or gaps): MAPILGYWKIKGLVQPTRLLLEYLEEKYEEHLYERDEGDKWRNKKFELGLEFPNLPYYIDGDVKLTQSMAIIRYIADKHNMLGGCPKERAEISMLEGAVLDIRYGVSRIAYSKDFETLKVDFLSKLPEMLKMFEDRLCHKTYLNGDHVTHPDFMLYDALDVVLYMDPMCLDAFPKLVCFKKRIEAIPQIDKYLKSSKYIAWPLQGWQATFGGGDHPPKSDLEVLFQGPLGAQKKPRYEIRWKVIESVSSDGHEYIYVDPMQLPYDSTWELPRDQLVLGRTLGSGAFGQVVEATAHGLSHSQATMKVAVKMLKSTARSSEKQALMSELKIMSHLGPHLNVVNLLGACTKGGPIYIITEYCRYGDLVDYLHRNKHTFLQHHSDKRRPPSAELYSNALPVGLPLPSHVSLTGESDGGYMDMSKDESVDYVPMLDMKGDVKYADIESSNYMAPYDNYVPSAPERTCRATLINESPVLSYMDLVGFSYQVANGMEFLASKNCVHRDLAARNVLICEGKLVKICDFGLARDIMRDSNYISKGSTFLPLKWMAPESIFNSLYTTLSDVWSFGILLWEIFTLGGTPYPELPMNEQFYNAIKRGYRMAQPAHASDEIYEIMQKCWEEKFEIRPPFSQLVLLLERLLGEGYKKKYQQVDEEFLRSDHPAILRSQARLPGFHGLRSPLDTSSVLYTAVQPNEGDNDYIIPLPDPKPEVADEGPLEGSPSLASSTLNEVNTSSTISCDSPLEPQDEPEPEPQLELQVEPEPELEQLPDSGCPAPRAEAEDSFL
T1 sequence (P16234 550-1089 T674I): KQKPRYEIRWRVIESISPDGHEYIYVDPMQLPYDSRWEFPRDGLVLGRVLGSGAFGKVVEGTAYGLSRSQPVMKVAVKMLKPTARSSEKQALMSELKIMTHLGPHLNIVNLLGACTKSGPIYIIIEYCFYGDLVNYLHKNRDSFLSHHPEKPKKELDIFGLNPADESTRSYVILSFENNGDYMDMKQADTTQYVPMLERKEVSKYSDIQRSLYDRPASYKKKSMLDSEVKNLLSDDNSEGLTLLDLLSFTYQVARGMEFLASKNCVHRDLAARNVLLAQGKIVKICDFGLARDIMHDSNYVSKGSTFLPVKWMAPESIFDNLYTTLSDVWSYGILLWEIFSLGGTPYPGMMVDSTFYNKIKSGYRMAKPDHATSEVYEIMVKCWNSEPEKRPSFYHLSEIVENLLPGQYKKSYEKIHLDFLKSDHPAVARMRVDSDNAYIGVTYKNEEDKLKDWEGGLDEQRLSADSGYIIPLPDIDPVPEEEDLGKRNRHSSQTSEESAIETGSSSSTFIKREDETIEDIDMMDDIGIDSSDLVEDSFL

CCn1cc2ncc(N[C@@H](C)c3cc(NC(=O)c4cnc(C#N)c(C)c4)ccc3F)nc2n1 [Compound 306, (S)-6-cyano-N-(3-(1-((2-ethyl-2H-pyrazolo[3,4-b]pyrazin-6-yl)amino)ethyl)-4-fluorophenyl)-5-methylnicotinamide]
IC50 [1]: < 300 nM | IC50 [2]: < 300 nM

CCn1cc2ncc(N[C@@H](C)c3cc(NC(=O)c4cnc(C)s4)ccc3F)nc2n1 [Compound 307, (S)-N-(3-(1-((2-ethyl-2H-pyrazolo[3,4-b]pyrazin-6-yl)amino)ethyl)-4-fluorophenyl)-2-methylthiazole-5-carboxamide]
IC50 [1]: < 300 nM | IC50 [2]: < 300 nM

CCn1cc2ncc(N[C@@H](C)c3cc(NC(=O)c4cnc(C(F)(F)F)s4)ccc3F)nc2n1 [Compound 308, (S)-N-(3-(1-((2-ethyl-2H-pyrazolo[3,4-b]pyrazin-6-yl)amino)ethyl)-4-fluorophenyl)-2-(trifluoromethyl)thiazole-5-carboxamide]
IC50 [1]: < 300 nM | IC50 [2]: < 300 nM

CCn1cc2ncc(N[C@@H](C)c3cc(NC(=O)c4cnc(C5CC5)s4)ccc3F)nc2n1 [Compound 309, (S)-2-cyclopropyl-N-(3-(1-((2-ethyl-2H-pyrazolo[3,4-b]pyrazin-6-yl)amino)ethyl)-4-fluorophenyl)thiazole-5-carboxamide]
IC50 [1]: < 300 nM | IC50 [2]: < 300 nM

CCn1cc(C(=O)Nc2ccc(F)c([C@H](C)Nc3cnc4cn(CC)nc4n3)c2)cn1 [Compound 310, (S)-1-ethyl-N-(3-(1-((2-ethyl-2H-pyrazolo[3,4-b]pyrazin-6-yl)amino)ethyl)-4-fluorophenyl)-1H-pyrazole-4-carboxamide]
IC50 [1]: < 300 nM | IC50 [2]: < 300 nM

CCn1cc2ncc(N[C@@H](C)c3cc(NC(=O)c4cnn(CCF)c4)ccc3F)nc2n1 [Compound 311, (S)-N-(3-(1-((2-ethyl-2H-pyrazolo[3,4-b]pyrazin-6-yl)amino)ethyl)-4-fluorophenyl)-1-(2-fluoroethyl)-1H-pyrazole-4-carboxamide]
IC50 [1]: < 300 nM | IC50 [2]: < 300 nM

CCn1cc2ncc(N[C@@H](C)c3cc(NC(=O)c4cnn(C5CC5)c4)ccc3F)nc2n1 [Compound 312, (S)-1-cyclopropyl-N-(3-(1-((2-ethyl-2H-pyrazolo[3,4-b]pyrazin-6-yl)amino)ethyl)-4-fluorophenyl)-1H-pyrazole-4-carboxamide]
IC50 [1]: < 300 nM | IC50 [2]: < 300 nM

CCn1cc2ncc(N[C@@H](C)c3cc(NC(=O)c4cnn(C(C)C)c4)ccc3F)nc2n1 [Compound 313, (S)-N-(3-(1-((2-ethyl-2H-pyrazolo[3,4-b]pyrazin-6-yl)amino)ethyl)-4-fluorophenyl)-1-isopropyl-1H-pyrazole-4-carboxamide]
IC50 [1]: < 300 nM | IC50 [2]: < 300 nM

CCOc1ncc(C(=O)Nc2cccc([C@H](C)Nc3cnc4cn(CC)nc4n3)c2)cc1C [Compound 314, (S)-6-ethoxyN-(3-(1-((2-ethyl-2H-pyrazolo[3,4-b]pyrazin-6-yl)amino)ethyl)phenyl)-5-methylnicotinamide]
IC50 [1]: < 300 nM | IC50 [2]: < 300 nM

CCn1cc2ncc(N[C@@H](C)c3cccc(NC(=O)c4cnc(OCC5CC5)c(C)c4)c3)nc2n1 [Compound 315, (S)-6-(cyclopropylmethoxy)-N-(3-(1-((2-ethyl-2H-pyrazolo[3,4-b]pyrazin-6-yl)amino)ethyl)phenyl)-5-methylnicotinamide]
IC50 [1]: < 300 nM | IC50 [2]: < 300 nM

CCOc1ncc(C(=O)Nc2ccc(F)c([C@H](C)Nc3cnc4cn(CC)nc4n3)c2)cc1C [Compound 316, (S)-6-ethoxy-N-(3-(1-((2-ethyl-2H-pyrazolo[3,4-b]pyrazin-6-yl)amino)ethyl)-4-fluorophenyl)-5-methylnicotinamide]
IC50 [1]: < 300 nM | IC50 [2]: < 300 nM

CCn1cc2ncc(N[C@@H](C)c3cc(NC(=O)c4cnc(OC)c(C)c4)ccc3F)nc2n1 [Compound 317, (S)-N-(3-(1-((2-ethyl-2H-pyrazolo[3,4-b]pyrazin-6-yl)amino)ethyl)-4-fluorophenyl)-6-methoxy-5-methylnicotinamide]
IC50 [1]: < 300 nM | IC50 [2]: < 300 nM

CCn1cc2ncc(N[C@@H](C)c3cc(NC(=O)c4cnc(OCC5CC5)c(C)c4)ccc3F)nc2n1 [Compound 318, (S)-6-(cyclopropylmethoxy)-N-(3-(1-((2-ethyl-2H-pyrazolo[3,4-b]pyrazin-6-yl)amino)ethyl)-4-fluorophenyl)-5-methylnicotinamide]
IC50 [1]: < 300 nM | IC50 [2]: < 300 nM

CCn1cc2ncc(N[C@@H](C)c3cccc(NC(=O)c4cnc(C(F)F)s4)c3)nc2n1 [Compound 319, (S)-2-(difluoromethyl)-N-(3-(1-((2-ethyl-2H-pyrazolo[3,4-b]pyrazin-6-yl)amino)ethyl)phenyl)thiazole-5-carboxamide]
IC50 [1]: < 300 nM | IC50 [2]: < 300 nM

CCn1cc2ncc(N[C@@H](C)c3cc(NC(=O)c4ccc(N5CCCC5)nc4)ccc3F)nc2n1 [Compound 320, (S)-N-(3-(1-((2-ethyl-2H-pyrazolo[3,4-b]pyrazin-6-yl)amino)ethyl)-4-fluorophenyl)-6-(pyrrolidin-1-yl)nicotinamide]
IC50 [1]: < 300 nM | IC50 [2]: < 300 nM

CCn1cc2ncc(N[C@@H](C)c3cccc(NC(=O)c4cnc(C5CC5)c(C)c4)c3)nc2n1 [Compound 321, (S)-6-cyclopropyl-N-(3-(1-((2-ethyl-2H-pyrazolo[3,4-b]pyrazin-6-yl)amino)ethyl)phenyl)-5-methylnicotinamide]
IC50 [1]: < 300 nM | IC50 [2]: < 300 nM

CCn1cc2ncc(N[C@@H](C)c3cc(NC(=O)c4cnc(C5CC5)c(C)c4)ccc3F)nc2n1 [Compound 322, (S)-6-cyclopropyl-N-(3-(1-((2-ethyl-2H-pyrazolo[3,4-b]pyrazin-6-yl)amino)ethyl)-4-fluorophenyl)-5-methylnicotinamide]
IC50 [1]: < 300 nM | IC50 [2]: < 300 nM

CCn1cc2ncc(N[C@@H](C)c3cccc(NC(=O)c4cnc(N5CCCC5)c(C)c4)c3)nc2n1 [Compound 323, (S)-N-(3-(1-((2-ethyl-2H-pyrazolo[3,4-b]pyrazin-6-yl)amino)ethyl)phenyl)-5-methyl-6-(pyrrolidin-1-yl)nicotinamide]
IC50 [1]: < 300 nM | IC50 [2]: < 300 nM

CCn1cc2ncc(N[C@@H](C)c3cccc(NC(=O)c4cnc(Br)s4)c3)nc2n1 [Compound 324, (S)-2-bromo-N-(3-(1-((2-ethyl-2H-pyrazolo[3,4-b]pyrazin-6-yl)amino)ethyl)phenyl)thiazole-5-carboxamide]
IC50 [1]: < 300 nM | IC50 [2]: 300 to 1000 nM

CCn1cc2ncc(N[C@@H](C)c3cccc(NC(=O)c4cnc(OC)s4)c3)nc2n1 [Compound 325, (S)-N-(3-(1-((2-ethyl-2H-pyrazolo[3,4-b]pyrazin-6-yl)amino)ethyl)phenyl)-2-methoxythiazole-5-carboxamide]
IC50 [1]: ≥ 1000 nM | IC50 [2]: ≥ 1000 nM

CCn1cc2ncc(N[C@@H](C)c3cccc(NC(=O)c4cnc(N5CCCC5)s4)c3)nc2n1 [Compound 326, (S)-N-(3-(1-((2-ethyl-2H-pyrazolo[3,4-b]pyrazin-6-yl)amino)ethyl)phenyl)-2-(pyrrolidin-1-yl)thiazole-5-carboxamide]
IC50 [1]: < 300 nM | IC50 [2]: < 300 nM

CCn1cc2ncc(N[C@@H](C)c3cccc(NC(=O)c4cnc(OC(C)C)c(C)c4)c3)nc2n1 [Compound 327, (S)-N-(3-(1-((2-ethyl-2H-pyrazolo[3,4-b]pyrazin-6-yl)amino)ethyl)phenyl)-6-isopropoxy-5-methylnicotinamide]
IC50 [1]: < 300 nM | IC50 [2]: < 300 nM

CCn1cc2ncc(N[C@@H](C)c3cccc(NC(=O)c4cnc(C)c(C)c4)c3)nc2n1 [Compound 328, (S)-N-(3-(1-((2-ethyl-2H-pyrazolo[3,4-b]pyrazin-6-yl)amino)ethyl)phenyl)-5,6-dimethylnicotinamide]
IC50 [1]: < 300 nM | IC50 [2]: < 300 nM

CCn1cc2ncc(N[C@@H](C)c3cccc(NC(=O)c4cnc(F)c(C)c4)c3)nc2n1 [Compound 329, (S)-N-(3-(1-((2-ethyl-2H-pyrazolo[3,4-b]pyrazin-6-yl)amino)ethyl)phenyl)-6-fluoro-5-methylnicotinamide]
IC50 [1]: < 300 nM | IC50 [2]: < 300 nM

CCn1cc2ncc(N[C@@H](C)c3cccc(NC(=O)c4ccc(F)c(C)c4)c3)nc2n1 [Compound 330, (S)-N-(3-(1-((2-ethyl-2H-pyrazolo[3,4-b]pyrazin-6-yl)amino)ethyl)phenyl)-4-fluoro-3-methylbenzamide]
IC50 [1]: < 300 nM | IC50 [2]: < 300 nM

CCn1cc2ncc(N[C@@H](C)c3cccc(NC(=O)c4ccc(C#N)c(C)c4)c3)nc2n1 [Compound 331, (S)-4-cyano-N-(3-(1-((2-ethyl-2H-pyrazolo[3,4-b]pyrazin-6-yl)amino)ethyl)phenyl)-3-methylbenzamide]
IC50 [1]: < 300 nM | IC50 [2]: < 300 nM

CCn1cc2ncc(N[C@@H](C)c3cccc(NC(=O)c4ccc(C)c(Cl)c4)c3)nc2n1 [Compound 332, (S)-3-chloro-N-(3-(1-((2-ethyl-2H-pyrazolo[3,4-b]pyrazin-6-yl)amino)ethyl)phenyl)-4-methylbenzamide]
IC50 [1]: < 300 nM | IC50 [2]: < 300 nM

CCNc1ncc(C(=O)Nc2cccc([C@H](C)Nc3cnc4cn(CC)nc4n3)c2)cc1C [Compound 333, (S)-N-(3-(1-((2-ethyl-2H-pyrazolo[3,4-b]pyrazin-6-yl)amino)ethyl)phenyl)-6-(ethylamino)-5-methylnicotinamide]
IC50 [1]: < 300 nM | IC50 [2]: 300 to 1000 nM

CCn1cc2ncc(N[C@@H](C)c3cccc(NC(=O)c4cnc(-n5ccnc5)c(C)c4)c3)nc2n1 [Compound 334, (S)-N-(3-(1-((2-ethyl-2H-pyrazolo[3,4-b]pyrazin-6-yl)amino)ethyl)phenyl)-6-(1H-imidazol-1-yl)-5-methylnicotinamide]
IC50 [1]: < 300 nM | IC50 [2]: < 300 nM

CCn1cc2ncc(N[C@@H](C)c3cc(NC(=O)c4cnc(C(F)(F)F)c(C)c4)ccc3F)nc2n1 [Compound 335, (S)-N-(3-(1-((2-ethyl-2H-pyrazolo[3,4-b]pyrazin-6-yl)amino)ethyl)-4-fluorophenyl)-5-methyl-6-(trifluoromethyl) nicotinamide]
IC50 [1]: < 300 nM | IC50 [2]: < 300 nM
